According to patent US6531493B1, “3-cyclopropylmethoxy-4-difluoromethoxy-N-(3,5-dichloropyrid-4-yl)benzamide in the treatment of multiple sclerosis” (Altana Pharma AG, priority 1999, dated 2003):

System: Experimental autoimmune encephalomyelitis (EAE) in female SJL mice
Test: Experimental autoimmune encephalomyelitis (EAE) induced with PLP139-151, daily clinical scoring
Type: in vivo
Details: for Number of sick animals: 2 × 5 mg/kg p.o., 2× daily up to day 21, n=10
[1] = oral administration, compared with untreated controls

## O=C(Nc1c(Cl)cncc1Cl)c1ccc(OC(F)F)c(OCC2CC2)c1 [substance A, 3-cyclopropylmethoxy-4-difluoromethoxy-N-(3,5-dichloropyrid-4-yl)benzamide]
Day 2 after EAE induction
  Number of sick animals: 0
Day 4 after EAE induction
  Number of sick animals: 0
Day 6 after EAE induction
  Number of sick animals: 0
Day 8 after EAE induction
  Number of sick animals: 0
Day 10 after EAE induction
  Number of sick animals: 0
Day 12 after EAE induction
  Number of sick animals: 0
Day 14 after EAE induction
  Number of sick animals: 1
Day 16 after EAE induction
  Number of sick animals: 3
Day 18 after EAE induction
  Number of sick animals: 3
Day 20 after EAE induction
  Number of sick animals: 3
Day 22 after EAE induction
  Number of sick animals: 3
Day 24 after EAE induction
  Number of sick animals: 4
Day 26 after EAE induction
  Number of sick animals: 3
Of the 10 treated animals, monitoring period up to the 26th day after EAE induction
  Number of experimental animals with no MS-analogous symptomatology at all: 6
[1]
  Effect on onset of the MS-analogous symptomatology: delay in the onset of the MS-analogous symptomatology
  Effect on the number of animals which suffer from the experimental encephalitis: marked decrease in the number of animals
